From PubChem BioAssay (NCI)
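GI50 is the concentration that inhibits growth by half. The concentration for full growth arrest is given as TGI.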

Legend:
Assay in all cases: inhibition of tumour cell growth, NCI panel, 384-well format
RXF 393 renal = tested on: RXF 393 renal
HCC-2998 colon = tested on: HCC-2998 colon
SK-OV-3 ovarian = tested on: SK-OV-3 ovarian
MALME-3M melanoma = tested on: MALME-3M melanoma
OVCAR-4 ovarian = tested on: OVCAR-4 ovarian
NCI-H226 lung = tested on: NCI-H226 lung
EKVX NSCLC = tested on: EKVX NSCLC
HS 578T breast = tested on: HS 578T breast
CAKI-1 renal = tested on: CAKI-1 renal
NCI-H460 NSCLC = tested on: NCI-H460 NSCLC
SW-620 colon = tested on: SW-620 colon
MDA-MB-231 breast = tested on: MDA-MB-231 breast
HT29 colon = tested on: HT29 colon
HOP-92 NSCLC = tested on: HOP-92 NSCLC
M14 melanoma = tested on: M14 melanoma
OVCAR-8 ovarian = tested on: OVCAR-8 ovarian
NCI/ADR-RES ovarian = tested on: NCI/ADR-RES ovarian
SR leukemia = tested on: SR leukemia
SF-268 CNS = tested on: SF-268 CNS
SF-539 CNS = tested on: SF-539 CNS
SNB-19 CNS = tested on: SNB-19 CNS
KM12 colon = tested on: KM12 colon
DU-145 prostate = tested on: DU-145 prostate
A498 renal = tested on: A498 renal
NCI-H522 lung = tested on: NCI-H522 lung
MDA-MB-468 breast = tested on: MDA-MB-468 breast
OVCAR-3 ovarian = tested on: OVCAR-3 ovarian
COLO 205 colon = tested on: COLO 205 colon
SNB-75 CNS = tested on: SNB-75 CNS
NCI-H23 lung = tested on: NCI-H23 lung
HCT-15 colon = tested on: HCT-15 colon
LOX IMVI melanoma = tested on: LOX IMVI melanoma
K-562 leukemia = tested on: K-562 leukemia
SF-295 CNS = tested on: SF-295 CNS
T-47D breast = tested on: T-47D breast
IGROV1 ovarian = tested on: IGROV1 ovarian
CCRF-CEM leukemia = tested on: CCRF-CEM leukemia
786-0 renal = tested on: 786-0 renal
A549 NSCLC = tested on: A549 NSCLC
UACC-257 melanoma = tested on: UACC-257 melanoma
SK-MEL-5 melanoma = tested on: SK-MEL-5 melanoma
TK-10 renal = tested on: TK-10 renal
PC-3 prostate = tested on: PC-3 prostate
SK-MEL-28 melanoma = tested on: SK-MEL-28 melanoma
HOP-62 NSCLC = tested on: HOP-62 NSCLC
NCI-H322M lung = tested on: NCI-H322M lung
MDA-MB-435 melanoma = tested on: MDA-MB-435 melanoma
UO-31 renal = tested on: UO-31 renal
SN12C renal = tested on: SN12C renal
MOLT-4 leukemia = tested on: MOLT-4 leukemia
ACHN renal = tested on: ACHN renal
MCF7 breast = tested on: MCF7 breast
HL-60(TB) leukemia = tested on: HL-60(TB) leukemia
BT-549 breast = tested on: BT-549 breast
U251 glioblastoma = tested on: U251 glioblastoma
OVCAR-5 ovarian = tested on: OVCAR-5 ovarian
UACC-62 melanoma = tested on: UACC-62 melanoma
RPMI-8226 leukemia = tested on: RPMI-8226 leukemia

SMILES: CC1(COc2ccc3c(c2)ncn3-c2ccc3cccc(N4CCC(N)CC4)c3n2)COC1
- GI50 (RXF 393 renal): 1560 nM
- TGI (RXF 393 renal): 2910 nM
- GI50 (HCC-2998 colon): 1390 nM
- TGI (HCC-2998 colon): 2730 nM
- GI50 (SK-OV-3 ovarian): 1610 nM
- TGI (SK-OV-3 ovarian): 3000 nM
- GI50 (MALME-3M melanoma): 1850 nM
- TGI (MALME-3M melanoma): 3250 nM
- GI50 (OVCAR-4 ovarian): 2180 nM
- TGI (OVCAR-4 ovarian): 3640 nM
- GI50 (NCI-H226 lung): 1560 nM
- TGI (NCI-H226 lung): 2990 nM
- GI50 (EKVX NSCLC): 1760 nM
- TGI (EKVX NSCLC): 3410 nM
- GI50 (HS 578T breast): 573 nM
- TGI (HS 578T breast): 1730 nM
- GI50 (CAKI-1 renal): 1000 nM
- TGI (CAKI-1 renal): 2230 nM
- GI50 (NCI-H460 NSCLC): 479 nM
- TGI (NCI-H460 NSCLC): 1600 nM
- GI50 (SW-620 colon): 1100 nM
- TGI (SW-620 colon): 2420 nM
- GI50 (MDA-MB-231 breast): 1060 nM
- TGI (MDA-MB-231 breast): 2500 nM
- GI50 (HT29 colon): 1630 nM
- TGI (HT29 colon): 3050 nM
- GI50 (HOP-92 NSCLC): 1180 nM
- TGI (HOP-92 NSCLC): 2470 nM
- GI50 (M14 melanoma): 1500 nM
- TGI (M14 melanoma): 2830 nM
- GI50 (OVCAR-8 ovarian): 1180 nM
- TGI (OVCAR-8 ovarian): 2430 nM
- GI50 (NCI/ADR-RES ovarian): 1710 nM
- TGI (NCI/ADR-RES ovarian): 3390 nM
- GI50 (SR leukemia): 185 nM
- TGI (SR leukemia): 430 nM
- GI50 (SF-268 CNS): 1160 nM
- TGI (SF-268 CNS): 2440 nM
- GI50 (SF-539 CNS): 501 nM
- TGI (SF-539 CNS): 1930 nM
- GI50 (SNB-19 CNS): 1980 nM
- TGI (SNB-19 CNS): 4520 nM
- GI50 (KM12 colon): 39.5 nM
- TGI (KM12 colon): 1450 nM
- GI50 (DU-145 prostate): 1090 nM
- TGI (DU-145 prostate): 2350 nM
- GI50 (A498 renal): 1670 nM
- TGI (A498 renal): 3040 nM
- GI50 (NCI-H522 lung): 441 nM
- TGI (NCI-H522 lung): 1630 nM
- GI50 (MDA-MB-468 breast): 532 nM
- TGI (MDA-MB-468 breast): 1600 nM
- GI50 (OVCAR-3 ovarian): 1560 nM
- TGI (OVCAR-3 ovarian): 3010 nM
- GI50 (COLO 205 colon): 482 nM
- TGI (COLO 205 colon): 1630 nM
- GI50 (SNB-75 CNS): 1530 nM
- TGI (SNB-75 CNS): 2870 nM
- GI50 (NCI-H23 lung): 622 nM
- TGI (NCI-H23 lung): 1880 nM
- GI50 (HCT-15 colon): 1450 nM
- TGI (HCT-15 colon): 2990 nM
- GI50 (LOX IMVI melanoma): 636 nM
- TGI (LOX IMVI melanoma): 1890 nM
- GI50 (K-562 leukemia): 967 nM
- TGI (K-562 leukemia): 2150 nM
- GI50 (SF-295 CNS): 1580 nM
- TGI (SF-295 CNS): 2940 nM
- GI50 (T-47D breast): 2070 nM
- TGI (T-47D breast): 3560 nM
- GI50 (IGROV1 ovarian): 1670 nM
- TGI (IGROV1 ovarian): 3080 nM
- GI50 (CCRF-CEM leukemia): 365 nM
- TGI (CCRF-CEM leukemia): 1400 nM
- GI50 ([…]-0 renal): 808 nM
- TGI (786-0 renal): 2070 nM
- GI50 (A549 NSCLC): 1280 nM
- TGI (A549 NSCLC): 2630 nM
- GI50 (UACC-257 melanoma): 2710 nM
- TGI (UACC-257 melanoma): 4190 nM
- GI50 (SK-MEL-5 melanoma): 1370 nM
- TGI (SK-MEL-5 melanoma): 2660 nM
- GI50 (TK-10 renal): 1710 nM
- TGI (TK-10 renal): 3680 nM
- GI50 (PC-3 prostate): 1690 nM
- TGI (PC-3 prostate): 3160 nM
- GI50 (SK-MEL-28 melanoma): 1680 nM
- TGI (SK-MEL-28 melanoma): 3050 nM
- GI50 (HOP-62 NSCLC): 556 nM
- TGI (HOP-62 NSCLC): 1760 nM
- GI50 (NCI-H322M lung): 1950 nM
- TGI (NCI-H322M lung): 3490 nM
- GI50 (MDA-MB-435 melanoma): 1280 nM
- TGI (MDA-MB-435 melanoma): 2550 nM
- GI50 (UO-31 renal): 1550 nM
- TGI (UO-31 renal): 2950 nM
- GI50 (SN12C renal): 250 nM
- TGI (SN12C renal): 1580 nM
- GI50 (MOLT-4 leukemia): 362 nM
- TGI (MOLT-4 leukemia): 1170 nM
- GI50 (ACHN renal): 1150 nM
- TGI (ACHN renal): 2470 nM
- GI50 (MCF7 breast): 1350 nM
- TGI (MCF7 breast): 2650 nM
- GI50 (HL-60(TB) leukemia): 275 nM
- TGI (HL-60(TB) leukemia): 901 nM
- GI50 (BT-549 breast): 370 nM
- TGI (BT-549 breast): 1410 nM
- GI50 (U251 glioblastoma): 1340 nM
- TGI (U251 glioblastoma): 2700 nM
- GI50 (OVCAR-5 ovarian): 1730 nM
- TGI (OVCAR-5 ovarian): 3410 nM
- GI50 (UACC-62 melanoma): 1460 nM
- TGI (UACC-62 melanoma): 2770 nM
- GI50 (RPMI-8226 leukemia): 242 nM
- TGI (RPMI-8226 leukemia): 708 nM
